# Measurements taken from PMC10288505, “Photoswitchable Calixarene Activators for Controlled Peptide Transport across Lipid Membranes” (Journal of the American Chemical Society, 2023).
# Test: Light-modulated CF dye efflux assay (in situ irradiation at 500 nm)
# Format: biochemical
# Experimental: To this aim, Z-1 and Z-2 were added to EYPC-LUV⊃CF dispersions at fixed concentrations to study the CF release upon in situ light stimulation. […] Irradiation with 500 nm light promotes the conversion of Z-2 into E-2, a stronger counterion activator, leading to ca. 50% of extra dye released as a result of the light-triggered translocation of R6 into the liposome (Figure 4 iii).
# Figure 4 (A) Light-modulated dye efflux assays performed with 4 μM R6, 60 nM Z-2, and 15 μΜ EYPC-LUV⊃CF (50 mM CF inside the liposome) and (B) schematization of each phase in the assay. (i) First, the activator Z-2 was added to a liposome solution (ii) followed by the addition of the peptide. (iii) The same sample was irradiated for 25 min at 500 nm, leading to a significant increase in CF release. (iv) Finally, in order to normalize the measurement for the maximum emission possible, the vesicles were lysed by addition of a small aliquot of Triton X-100. […]
# until the emission stabilizes and a maximum of release is reached. If the counterion activator has the capacity to activate the transport, CF should be co-transported to the exterior of the liposome with the influx of the counterion-peptide complex. Finally, Triton X-100 is added to the solution to dissolve the vesicles and obtain the maximum amount of CF that could be released from the liposomes and emit in the […]
# EC50 and Ymax values were calculated from the values of corrected emission at the plateau that is reached, according to previously reported assays.7
# Light-activated release assays. The light-modulation offered by this novel counterion activator was tested by performing dye efflux assays as previously described, with the addition of an interval in the measurement where the solution was irradiated at 500 nm. […]
# Figure S44 - Light-modulated dye efflux assays done with the peptide A) R6, 4 µM, and B) R8, 5 µM, with a fixed concentration of Z-1 of 0.20 µM for both assays. 40 µM of EYPC-LUV and 20 µΜ EYPC-LUV⊃CF (50 mM of CF) were used in the first assay and 30 µM of EYPC-LUV and 7 µΜ EYPC-LUV⊃CF (50 mM of CF) were used in the latter. The assay was performed in the same way as the dye release assays (addition of the peptide marked with a red dashed arrow) with an additional irradiation step for an interval of 30 to 40 min (marked with a black arrow), leading to an increase in release of ~15% for the peptide R6 and only 7% for the peptide R8. […]
# Figure S45 - Light-modulated dye efflux assay done with the peptide R8, 4 µM, with a fixed concentration of Z-2 of 16 nM. 15 µΜ of EYPC-LUV⊃CF (50 mM of CF) were used and the light activation step was done with a single 25 min irradiation cycle at 500 nm (marked with a black arrow). The increase of release obtained was of 14%. […]
SMILES,"Increase in CF release upon irradiation, R6 (4 µM R6, 0.20 µM Z-1, 40 µM EYPC-LUV and 20 µM EYPC-LUV⊃CF (50 mM CF), irradiation 30 to 40 min at 500 nm)","Increase in CF release upon irradiation, R8 (5 µM R8, 0.20 µM Z-1, 30 µM EYPC-LUV and 7 µM EYPC-LUV⊃CF (50 mM CF), irradiation 30 to 40 min at 500 nm) [%]","Extra dye released upon irradiation at 500 nm, R6 (4 μM R6, 60 nM Z-2, 15 μM EYPC-LUV⊃CF (50 mM CF), irradiated 25 min at 500 nm)","Increase in CF release upon irradiation, R8 (4 µM R8, 16 nM Z-2, 15 µM EYPC-LUV⊃CF (50 mM CF), single 25 min irradiation cycle at 500 nm) [%]"
O=S(=O)([O-])c1cc2c(O)c(c1)Cc1cc(S(=O)(=O)[O-])cc(c1O)Cc1cc(S(=O)(=O)[O-])cc(c1OCCCCCCOc1ccc(/N=N\c3ccccc3)cc1)Cc1cc(S(=O)(=O)[O-])cc(c1O)C2.[Li+].[Li+].[Li+].[Li+] [Z-1],~ 15%,7,,
CCCCc1ccc(/N=N\c2ccc(OCCCOc3c4cc(S(=O)(=O)[O-])cc3Cc3cc(S(=O)(=O)[O-])cc(c3O)Cc3cc(S(=O)(=O)[O-])cc(c3O)Cc3cc(S(=O)(=O)[O-])cc(c3O)C4)cc2)cc1.[Li+].[Li+].[Li+].[Li+] [Z-2],,,ca. 50%,14
